Laboratory results: patent US8846066B2, “Methods and related compositions for reduction of fat and skin tightening” (The Regents of the University of California, priority 2004, dated 2014)
“And” between values parts separate entries of the source, which are not always exact repeats. Equal values may be shown once.

Experiments:
HaCaT cells = assay: Lactate dehydrogenase (LDH) release assay, cell lysis; type: cell-based, human; settings: for LDH release (OD 490): 30 min at 37° C.
Description: Cell lysis in response to detergent treatment was determined in HaCaT cells incubated with the reagents at the indicated cell dilutions for 30 min at 37° C. Lysis in cultured cells was measured using a lactate dehydrogenase (LDH) assay and within tissue using calcein, a fluorescent marker retained in cells with intact cell membranes. The LDH assay measures the activity of LDH, which is a cytosolic enzyme released when cells are lysed. Lactate dehydrogenase release was measured by absorbance (at 490 nm) after a 1 hour incubation with the LDH assay as recommended by the manufacturer (CytoTox 96 Non-Radioactive Cytotoxicity Assay, Promega). All studies were performed in triplicate. LDH release is directly proportional to absorbance at 490 nm (OD 490).

[1] = tested on: HaCaT human keratinocyte cells; assay: MTS cell viability assay in cultured HaCaT cells; type: cell-based; settings: for cell viability (MTS, OD 490): 30 min at 37° C.
Description: (§1) To measure cell viability after detergent treatment, HaCaT human keratinocyte cells were cultured in DMEM (Dulbecco's modified Eagle's medium) supplemented with 10% fetal calf serum, penicillin, and streptomycin. […] Cell viability was determined by an absorbance spectrophotometer (at 490 nm) after 4 hour incubation with the assay at 37° C. To determine cell viability in fresh tissue, fat specimens were incubated for 4 hours in 24 well plates with stock reagents and the MTS assay. Tissue specimens were then visualized for color change and the amount of MTS in their supernatants was measured by absorbance (at 490 nm). All studies were performed in triplicate. Absorbance at 490 nm (OD 490) is proportional to the number of living cells in the culture.

fat deposits = assay: Injection of deoxycholate into facial fat deposits of an HIV lipodystrophy patient; type: in vivo, human; settings: 1% deoxycholate, 1 month follow up, both sides
Description: An HIV lipodystrophy patient with symmetrical fat deposits in their face just vental of their master muscle (sort of in their cheeks, like acorns in the mouth of a chipmunk) was injected with 1% deoxycholate. At 1 month follow up, there was a 50% apparent reduction in deposit volume on both sides.

CHL = assay: Killing by DC after pre-incubation with human lipoma fat, CHL; type: cell-based
Description: (§2) The experiment was performed on a series of immortalized melanocyte cell lines. Resected human lipomas were ground up, and DC-containing media was mixed with the human fat and agitated for 24 hours. The material was centrifuged to pellet insoluble contents. The supernatants were then added on top of cultured melanocytes. Control was the identical DC-containing media not exposed to the fat chunks. Also, fat alone (no media) was added as a control.

adipocytes = assay: Adipocyte survival on addition of PC to 4.75% DC; type: cell-based; settings: for Average / Adipocytes surviving by adding PC to 4.75% DC: 4.75% DC; for Adipocytes surviving by adding PC to 4.75% DC: single wells
Description: FIG. 9 illustrates survival of adipocytes when phosphatidylcholine is added to 4.75% sodium deoxycholate solution. On y-axis, 1 represents 100% survival. All % concentrations are w/v %. Survival of the cells in the absence of DC and PC is on an average 0.113.

porcine fat tissue = assay: MTS assay in fresh porcine fat specimens; type: cell-based; settings: PBF or 5% solutions, 4 hours
Description: as §1
Porcine tissue was obtained immediately after sacrifice, shaved, and placed on ice for a maximum of four hours before use. […] Calcein retention was determined by tissue fluorescence using purple (411 nm) light and visually observing the emitted green (500 nm) light using an emission filters.
Fresh porcine skin was used to determine if the effects of these detergent substances on cultured cells were similar in tissue. […] The difference in fat cell viability between the solutions was quantified by measuring the absorbance (at 490) of the supernatants collected from the treated fat specimens (FIG. 3b). […]

[2] = tested on: porcine skin (epidermis, dermis, subcutaneous tissue, muscle); assay: Histology of full thickness porcine skin after injection; settings: 0.5 mL stock reagent injected, one hour at 37° C., H&E
Description: Histology was performed by injecting stock reagent solutions (0.5 mL) into full thickness porcine skin at various levels (epidermis, dermis, and subcutaneous tissue) with 1.0 mL syringes and 30-gauge, 0.5 inch needles. Needle depth was visualized along the margin of the porcine tissue with the intent of saturating the target tissue. One hour after incubation with PBS at 37° C., multiple 5.0 mm biopsy specimens were obtained from the injected sites, each condition performed in triplicate. Tissue was fixed in formaldehyde, paraffin-embedded, and stained with hematoxylin-eosin. Specimens were evaluated by a board-certified dermatopathologist who was blinded to the treatment protocol.

[3] = tested on: immortalized melanocyte cell lines; assay: Killing by DC after pre-incubation with human lipoma fat, series of cell lines; type: cell-based; settings: 0.1% DC pre-incubated with human lipoma fat
Description: as §2
But it is evident in this experiment that the presence of the fat limits the killing properties of DC, may be by direct inhibition (like PC) or by sequestration (i.e., into the fat pellet). This can further explain the observation that injection of DC into fat spares the surrounding tissues.

lipomas = assay: Injection of DC solutions into lipomas of patients (Example 4); type: in vivo, human
Description: Patients having lipomas, benign, isolated collections of adipose tissue, were injected with sodium deoxycholate (DC) solutions without phosphatidylcholine directly into the lipoma. […] A lipoma from one patient, injected with 1% DC, was excised after treatment and pathological and histological analysis performed. Within the excised lipoma, necrosis is visible grossly (FIG. 6a) with a well demarcated area of hemorrhage and necrosis on the lateral edge extending into the middle of the lipoma fat which contrasts with the normal lipoma fat which is lighter in color.

WM266 = assay: Killing by DC after pre-incubation with human lipoma fat, WM266; type: cell-based
Description: as §2

[4] = DC 0.1% media not exposed to fat
[5] = single wells, DC 0.1% media not exposed to fat
[6] = single wells, supernatant of DC 0.1% media agitated 24 hours with human lipoma fat
[7] = supernatant of DC 0.1% media agitated 24 hours with human lipoma fat

`C[C@H](CCC(=O)[O-])[C@H]1CC[C@H]2[C@@H]3CC[C@@H]4C[C@H](O)CC[C@]4(C)[C@H]3C[C@H](O)[C@]12C.[Na+]` [DC, sodium deoxycholate] was tested, and the “LDH release (OD 490)” value (HaCaT cells; 0.005% dilution) was “minimal LDH release”, the “LDH release (OD 490)” value (HaCaT cells; 0.05% and 0.5%) was “progressively more LDH released” and the “cell lysis compared with PBF” value (HaCaT cells; cell culture) was “less cell lysis”. For the same compound, the “cell lysis (LDH release, FIG. 2b)” value (HaCaT cells; over the tested dilutions) was “concentration dependent increase in cell lysis”, the “cell viability (MTS, OD 490)” value ([1]; 0.005% dilution) was “little effect” and the “cell viability (MTS, OD 490)” value ([1]; 0.05% and 0.5% concentrations) was “progressively decreased”. The “viability of cultured cells (MTS, FIG. 2a)” value ([1]; approximately equal to the complete PBF) was “profoundly decreased the viability of cultured cells”, the “apparent reduction in deposit volume” value (fat deposits) was 50% and the “Percentage, DC 0.1%” value (CHL; Control = 1, DC 0.1% media not exposed to fat) was 0.098. For the same compound, the “Percentage, DC 0.1% + fat” value (CHL; Control = 1, DC 0.1% media pre-incubated with human lipoma fat) was 0.610, the “Average, DC 0.1%” value (CHL; [4]) was 0.065 and the “Actual, DC 0.1%” value (CHL; [5]) was 0.064 and 0.066. The “CHL (readings), DC 0.1%” value (CHL; [5]) was 0.064 and 0.066, the “Actual, DC 0.1% + fat” value (CHL; [6]) was 0.402 and 0.426 and 0.378 and the “CHL (readings), DC 0.1% + fat” value (CHL; [6]) was 0.402 and 0.426 and 0.378. The “Average, DC 0.1% + fat” value (CHL; [7]) was 0.402, the Average (adipocytes; PC 0 (w/v %)) was 0 and the Average (adipocytes; PC 0.01 (w/v %)) was 0. For the same compound, the Average (adipocytes; PC 0.1 (w/v %)) was 0, the Average (adipocytes; PC 1 (w/v %)) was 0 and the Average (adipocytes; PC 5 (w/v %)) was 0.009. For the same compound, the “adipolysis of cultured adipocytes” value (adipocytes; 4.75% sodium deoxycholate, in vitro) was 100%, the “Adipocytes surviving by adding PC to 4.75% DC” value (adipocytes; PC 0 (w/v %)) was 0 and the “Adipocytes surviving by adding PC to 4.75% DC” value (adipocytes; PC 0.01 (w/v %)) was 0. For the same compound, the “Adipocytes surviving by adding PC to 4.75% DC” value (adipocytes; PC 0.1 (w/v %)) was 0, the “Adipocytes surviving by adding PC to 4.75% DC” value (adipocytes; PC 1 (w/v %)) was 0 and the “fat cell viability (MTS purple dye, absorbance at 490)” value (porcine fat tissue) was “comparable loss of purple dye”. The “histologic changes in epidermis, dermis, adnexal structures” value [2] was “no apparent affect”, the “histologic changes in fat” value [2] was “Marked blurring and dissolution of adipocyte cell membranes” and the “effect of pre-incubation with fat on killing” value [3] was “appears to reduce killing”. For the same compound, the “Size(cm) Post-treatment” value (lipomas; Lipoma 5, pre-treatment 2.00 × 1.75, 2 treatments (1% DC)) was 1.25 cm, the “Size(cm) Post-treatment” value (lipomas; Lipoma 6, pre-treatment 2.80, 1 treatment (5% DC)) was 0.50 cm and the “Size(cm) Post-treatment” value (lipomas; Lipoma 7, pre-treatment 1.00, 1 treatment (1% DC)) was “Imperceptible”. The “size of injected lipomas” value (lipomas; after at least one treatment, varied concentrations of deoxycholate) was “reduced in size”, the “pathology and histology of excised lipoma” value (lipomas; one patient, 1% DC, removed two days after injection) was “well defined area of hemorrhage and necrotic fat” and the “Percentage, DC 0.1%” value (WM266; Control = 1.000, DC 0.1% media not exposed to fat) was 0.113. The “Percentage, DC 0.1% + fat” value (WM266; Control = 1.000, DC 0.1% media pre-incubated with human lipoma fat) was 0.539, the “Average, DC 0.1%” value (WM266; [4]) was 0.063 and the “Actual, DC 0.1%” value (WM266; [5]) was 0.07 and 0.061 and 0.058. The “WM266 (readings), DC 0.1%” value (WM266; [5]) was 0.07 and 0.061 and 0.058, the “Actual, DC 0.1% + fat” value (WM266; [6]) was 0.281 and 0.308 and 0.314 and the “WM266 (readings), DC 0.1% + fat” value (WM266; [6]) was 0.281 and 0.308 and 0.314. For the same compound, the “Average, DC 0.1% + fat” value (WM266; [7]) was 0.301.
